Assay results as given in patent publication US20260015363A1, “SUBSTITUTED PYRIMIDINE-FUSED RING INHIBITOR, METHOD FOR PREPARING SAME, AND USE THEREOF” (Suzhou Zelgen Biopharmaceuticals Co., Ltd., priority 2022, published 2026).
Read-outs that look alike come from different tables or passages of the source.

Key:
AsPC-1 (G12D) = test: KRAS mutant cell proliferation inhibition assay (CellTiter-Glo 3D), AsPC-1; format: cell-based, human; conditions: AsPC-1 (G12D) cells, 7 days
Description: (§1) Positive control: MRTX1133
(§2) • (a) The cells were thawed in T75 cell culture flasks: • (b) When 80%-90% cell confluence was achieved, the cells were passaged.
(§3) The diluted test compound was added to a 384-well cell culture plate using a nanoliter pipetting system, and replicate wells were set. An equal volume of medium was added to the positive control group; an equal volume of DMSO was added to the negative control group. The plate was centrifuged at 1000 rpm at room temperature for 1 min.
(§4) The cells were seeded into a) 384-well culture plate. An equal volume of cells was added to the negative control group, and only an equal volume of medium was added to the positive control group. The plate was centrifuged at 1000 rpm at room temperature for 1 min. The final DMSO concentration in the final compound was 0.5%. The plate was incubated in a thermostatic incubator at 37° C. with 5% CO2 for 7 days.
(§5) CellTiter-Glo® 3D was added to b) 384-well cell culture plate at 20 μL/well. The plate was shaken at 320 rpm in the dark for 20 min, and incubated at room temperature in the dark for 2 h. The luminescence values were read using an Envision multi-mode microplate reader.
(§6) The inhibition rates (IRs) of the test compounds were calculated according to the following formula: IR (%)=(1−(RLU compound−RLU blank control)/(RLU vehicle control−RLU blank control))×100%. The inhibition rates of the compounds at different concentrations were calculated in Excel, and then inhibition curves were plotted and relevant parameters including minimum inhibition rate, maximum inhibition rate and IC50 were calculated using GraphPad Prism software.

H727 (G12V) = test: KRAS mutant cell proliferation inhibition assay (CellTiter-Glo 3D), H727; format: cell-based, human; conditions: H727 (G12V) cells, 7 days
Description: as §1, §2, §3, §4, §5, §6

MNK1 (WT) = test: Cell proliferation inhibition assay (CellTiter-Glo 3D), MNK1; format: cell-based, human; conditions: MNK1 (WT) cells, 7 days
Description: as §1, §2, §3, §4, §5, §6

PSN-1 (G12R) = test: KRAS mutant cell proliferation inhibition assay (CellTiter-Glo 3D), PSN-1; format: cell-based; conditions: PSN-1 (G12R) cells, 7 days
Description: as §1, §2, §3, §4, §5, §6

SW480 (G12V) = test: KRAS mutant cell proliferation inhibition assay (CellTiter-Glo 3D), SW480; format: cell-based; conditions: SW480 (G12V) cells, 7 days
Description: as §1, §2, §3, §4, §5, §6

SMILES	IC50 (AsPC-1 (G12D); Homo sapiens, ASPC1, 168 h)	IC50 (H727 (G12V); Homo sapiens, NCI-H727, 168 h)	IC50 (SW480 (G12V); Homo sapiens, 168 h)	IC50 (MNK1 (WT); Homo sapiens, 168 h)	IC50 (PSN-1 (G12R); Homo sapiens, PSN1, 168 h)	other results
C#Cc1c(F)ccc2cc(O)cc(-c3ncc4c(N5CCCC6(CCO6)C5)nc(OC[C@@]56CCCN5C[C@@]5(CC5(F)F)C6)nc4c3F)c12 (some centres unmarked) [Example A-15, 4-(2-(((1.S,7a'S)-2,2-difluorodihydro-1′H,3′H-spiro[cyclopropane-1,2′-pyrrolizin]-7a′ (5′H)-yl)methoxy)-8-fluoro-4-(1-oxa-6-azaspiro[3.5]nonan-6-yl)pyrido[4,3-d]pyrimidin-7-yl)-5-ethynyl-6-fluoronanhthalen-2-ol]	164 nM	450 nM	–	171 nM	> 10000 nM	–
CCc1c(F)ccc2cc(O)cc(-c3ncc4c(N5CCC[C@@](C)(O)C5)nc(OCC56CCCN5CC5(C6)CC5(F)F)nc4c3F)c12 (stereo in doubt) [Example A-13B, (R)-1-(2-(((trans)-2,2-difluorodihydro-l′H,3′H-spiro[cyclopropane-1,2′-pyrrolizin]-7a′ (5′H)-yl)methoxy)-7-(8-ethyl-7-fluoro-3-hydroxynaphthalen-1-yl)-8-fluoropyrido[4,3-d]pyrimidin-4-yl)-3-methylpiperidin-3-ol]	–	–	–	–	–	IC50 (AsPC-1 (G12D)): 18.8 nM; IC50 (H727 (G12V)): 51.7 nM; IC50 (MNK1 (WT)): 12.9 nM; IC50 (PSN-1 (G12R); read-out: PSN1 IC50): 506 nM
C#Cc1c(F)ccc2cc(O)cc(-c3ncc4c(N5CCCOC6CC65)nc(OC[C@@]56CCCN5C[C@@]5(CC5(F)F)C6)nc4c3F)c12 (stereo partly drawn) [Example A-29, 4-(4-((cis)-2-Oxa-6-azabicyclo[5.1.0]octan-6-yl)-2-(((1,5,7a'S)-2,2-difluorodihydro-1′H,3′H-spiro[cyclopropane-1,2′-pyrrolizin]-7a′ (5′H)-yl)methoxy)-8-fluoropyrido[4,3-d]pyrimidin-7-yl)-5-ethynyl-6-fluoronaphthalen-2-ol]	4.85 nM	–	2.1 nM	–	–	–
CCc1c(F)ccc2cc(O)cc(-c3ncc4c(N5CCC[C@](C)(O)C5)nc(OCC56CCCN5CC5(C6)CC5(F)F)nc4c3F)c12 (stereo in doubt) [Example A-13A, (S)-1-(2-(((trans)-2,2-difluorodihydro-1′H,3′H-spiro[cyclopropane-1,2′-pyrrolizin]-7a′ (5′H)-yl)methoxy)-7-(8-ethyl-7-fluoro-3-hydroxynaphthalen-1-yl)-8-fluoropyrido[4,3-d]pyrimidin-4-yl)-3-methylpiperidin-3-ol]	–	–	–	–	–	IC50 (AsPC-1 (G12D)): > 1000 nM; IC50 (H727 (G12V)): 1990 nM; IC50 (MNK1 (WT)): 634 nM; IC50 (PSN-1 (G12R); read-out: PSN1 IC50): > 10000 nM
CN(C)C(=O)c1cc2n(n1)CCCN(c1nc(OC[C@@]34CCCN3C[C@@]3(CC3(F)F)C4)nc3c(F)c(-c4cc(N)cc(Cl)c4C(F)(F)F)ncc13)C2 [Example A-25, 5-(7-(5-Amino-3-chloro-2-(trifluoromethyl)phenyl)-2-(((1S,7a'S)-2,2-difluorodihydro-1′H,3′H-spiro[cyclopropane-1,2′-pyrrolizin]-7a′ (5′H)-yl)methoxy)-8-fluoropyrido[4,3-d]pyrimidin-4-yl)-N,N-dimethyl-5,6,7,8-tetrahydro-4H-pyrazolo[1,5-a][1,4]diazepine-2-carboxamide]	33.6 nM	141 nM	–	66.3 nM	> 10000 nM	–
CCc1c(F)ccc2cc(O)cc(-c3ncc4c(N(C)[C@H]5C[C@@H]5F)nc(OC[C@@]56CCCN5C[C@@]5(CC5(F)F)C6)nc4c3F)c12 [Example A-45, 4-(2-(((1,5,7a'S)-2,2-Difluorodihydro-1′H,3′H-spiro[cyclopropane-1,2′-pyrrolizin]-7a′ (5′H)-yl)methoxy)-8-fluoro-4-(((trans)-2-fluorocyclopropyl)(methyl)amino)pyrido[4,3-d]pyrimidin-7-yl)-5-ethyl-6-fluoronaphthalen-2-ol]	74.4 nM	–	41 nM	–	–	–
CCc1c(F)ccc2cc(O)cc(N3CCc4c(nc(OC[C@@]56CCCN5C[C@@]5(CC5(F)F)C6)nc4N4CCCn5nc(C(=O)N(C)C)cc5C4)C3)c12 [Example B-13, 5-(2-(((1S,7a'S)-2,2-Difluorodihydro-1′H,3′H-spiro[cyclopropane-1,2′-pyrrolizin]-7a′ (5′H)-yl)methoxy)-7-(8-ethyl-7-fluoro-3-hydroxynaphthalen-1-yl)-5,6,7,8-tetrahydropyrido[3,4-d]pyrimidin-4-yl)-N,N-dimethyl-5,6,7,8-tetrahydro-4H-pyrazolo[1,5-a][1,4]diazepine-2-carboxamide]	8.98 nM	47.3 nM	–	24.3 nM	2350 nM	–
CCc1c(F)ccc2cc(O)cc(-c3ncc4c(N5CCCn6nc(C(=O)N(C)C)cc6C5)nc(OC[C@@]56CCCN5C[C@@]5(CC5(F)F)C6)nc4c3F)c12 [Example A-24, 5-(2-(((1S,7a'S)-2,2-Difluorodihydro-1′H,3′H-spiro[cyclopropane-1,2′-pyrrolizin]-7a′ (5′H)-yl)methoxy)-7-(8-ethyl-7-fluoro-3-hydroxynaphthalen-1-yl)-8-fluoropyrido[4,3-d]pyrimidin-4-yl)-N,N-dimethyl-5,6,7,8-tetrahydro-4H-pyrazolo[1,5-a][1,4]diazepine-2-carboxamide]	11.1 nM	101 nM	–	19.7 nM	> 10000 nM	–
C#Cc1c(F)ccc2cc(O)cc(-c3ncc4c(N(C)[C@H]5C[C@@H]5F)nc(OC[C@@]56CCCN5C[C@@]5(CC5(F)F)C6)nc4c3F)c12 [Example A-44, 4-(2-(((15,7a'S)-2,2-Difluorodihydro-1′H,3′H-spiro[cyclopropane-1,2′-pyrrolizin]-7a′ (5′H)-yl)methoxy)-8-fluoro-4-(((trans)-2-fluorocyclopropyl)(methyl)amino)pyrido[4,3-d]pyrimidin-7-yl)-5-ethynyl-6-fluoronaphthalen-2-ol]	25.1 nM	–	7.13 nM	–	–	–
CN(c1nc(OC[C@@]23CCCN2C[C@@]2(CC2(F)F)C3)nc2c(F)c(-c3cc(N)cc(Cl)c3C(F)(F)F)ncc12)[C@H]1C[C@@H]1F [Example A-46, 7-(5-Amino-3-chloro-2-(trifluoromethyl)phenyl)-2-(((15,7a'S)-2,2-difluorodihydro-1′H,3′H-spiro[cyclopropane-1,2′-pyrrolizin]-7a′ (5′H)-yl)methoxy)-8-fluoro-N-((trans)-2-fluorocyclopropvl)-N-methylpyrido[4,3-d]pyrimidin-4-amine]	732 nM	–	482 nM	–	–	–
CCc1c(F)ccc2cc(O)cc(-c3ncc4c(N5CCC[C@@]6(CCO6)C5)nc(OC[C@@]56CCCN5C[C@@]5(CC5(F)F)C6)nc4c3F)c12 [Example A-16A, 4-(2-(((15,7a'S)-2,2-difluorodihydro-1′H,3′H-spiro[cyclopropane-1,2′-pyrrolizin]-7a′ (5′H)-yl)methoxy)-8-fluoro-4-((R)-1-oxa-6-azaspiro[3.5]nonan-6-yl)pyrido[4,3-d]pyrimidin-7-yl)-5-ethyl-6-fluoronaphthalen-2-ol]	–	–	–	–	–	IC50 (AsPC-1 (G12D)): 5.7 nM; IC50 (SW480 (G12V)): 11.1 nM

Further lines, with some results ahead:

IC50 (AsPC-1 (G12D); Homo sapiens, ASPC1, 168 h)	IC50 (H727 (G12V); Homo sapiens, NCI-H727, 168 h)	IC50 (SW480 (G12V); Homo sapiens, 168 h)	SMILES	IC50 (MNK1 (WT); Homo sapiens, 168 h)	IC50 (PSN-1 (G12R); Homo sapiens, PSN1, 168 h)	other results
31.6 nM	119 nM	–	CCc1c(F)ccc2cc(O)cc(-c3ncc4c(N5CCOCC(C)(O)C5)nc(OC[C@@]56CCCN5C[C@@]5(CC5(F)F)C6)nc4c3F)c12 (stereo partly drawn) [Example A-38, 4-(2-(((1S,7a'S)-2,2-Difluorodihydro-1′H,3′H-spiro[cyclopropane-1,2′-pyrrolizin]-7a′ (5′H)-yl)methoxy)-7-(8-ethyl-7-fluoro-3-hydroxynaphthalen-1-yl)-8-fluoropyrido[4,3-d]pyrimidin-4-yl)-6-methyl-1.4-oxazenan-6-ol]	21.4 nM	> 10000 nM	–
27.6 nM	–	37.3 nM	CCc1c(F)ccc2cc(O)cc(-c3ncc4c(N5CCCOC6CC65)nc(OC[C@@]56CCCN5C[C@@]5(CC5(F)F)C6)nc4c3F)c12 (stereo partly drawn) [Example A-28, 4-(4-(2-Oxa-6-azabicyclo[5.1.0]octan-6-yl)-2-(((1S,7a'S)-2,2-difluorodihydro-1′H,3′ H-spiro[cyclopropane-1,2′-pyrrolizin]-7a′ (5′H)-yl)methoxy)-8-fluoropyrido[4,3-d]pyrimidin-7-yl)-5-ethyl-6-fluoronaphthalen-2-ol]	–	–	–
387 nM	–	660 nM	CCc1c(F)ccc2cc(O)cc(-c3ncc4c(N5CCC[C@]6(CCO6)C5)nc(OC[C@@]56CCCN5C[C@@]5(CC5(F)F)C6)nc4c3F)c12 (single isomer, unassigned) [Example A-16B]	–	–	–
736 nM	–	651 nM	CCc1c(F)ccc2cc(O)cc(-c3ncc4c(N5CCC6CCC(C5)O6)nc(OC[C@@]56CCCN5C[C@@]5(CC5(F)F)C6)nc4c3F)c12 (some centres unmarked) [Example A-31]	–	–	–
